Like-named read-outs stand apart in the source and are kept apart here.
How the values were obtained:
ITK = biological target: T1, ITK (Homo sapiens, UniProt Q08881); experiment: ITK inhibitor binding potency (LanthaScreen competitive binding assay); conditions: TR-FRET competitive binding, 10 nM ITK, 50 nM kinase tracer-236; pre-incubation condition not given; read-out: ITK Inhibition IC50
T1 sequence (Q08881 1-620): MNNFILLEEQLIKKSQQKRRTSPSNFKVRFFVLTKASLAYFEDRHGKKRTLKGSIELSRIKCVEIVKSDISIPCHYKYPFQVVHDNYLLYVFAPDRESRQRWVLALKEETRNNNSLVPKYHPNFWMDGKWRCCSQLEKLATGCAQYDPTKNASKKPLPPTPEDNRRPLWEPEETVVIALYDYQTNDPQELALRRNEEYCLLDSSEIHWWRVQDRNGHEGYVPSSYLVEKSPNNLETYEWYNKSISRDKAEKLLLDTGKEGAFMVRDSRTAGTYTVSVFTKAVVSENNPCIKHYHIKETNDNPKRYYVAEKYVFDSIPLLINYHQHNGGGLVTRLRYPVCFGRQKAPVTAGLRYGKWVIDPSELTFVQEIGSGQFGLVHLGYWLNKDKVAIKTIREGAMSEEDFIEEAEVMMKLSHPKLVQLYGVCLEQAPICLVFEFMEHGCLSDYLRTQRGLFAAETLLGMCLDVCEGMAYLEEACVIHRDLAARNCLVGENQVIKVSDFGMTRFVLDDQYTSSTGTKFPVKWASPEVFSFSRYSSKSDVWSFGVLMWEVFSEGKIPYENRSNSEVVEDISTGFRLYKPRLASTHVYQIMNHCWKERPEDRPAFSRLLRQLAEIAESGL
Description: The ability of candidate compounds to interact with ITK is quantitated by a competitive binding assay using the LanthaScreen technology developed by Life Technologies. This assay is based on the binding of a proprietary, Alexa Fluor™ 647-labeled, ATP-competitive kinase inhibitor (kinase tracer-236) to the ITK expression construct in the presence of a Europium-conjugated antibody, resulting in a FRET (fluorescence resonance energy transfer) signal. Displacement of the kinase tracer by compound results in a lower emission ratio upon excitation of the Europium chelate. Candidate compounds are designed as potential irreversible inhibitors of ITK, capable of ligating to an active site cysteine residue resulting in time dependent covalent binding. The time dependent nature of irreversible inhibition is investigated by performing the binding assay with and without a pre-incubation of compound and ITK. […] The inhibitory potency of candidate compounds is measured in 20 mM HEPES pH 7.5, 10 mM MgCl2, 0.01% BSA, 0.0005% Tween-20, and 2% DMSO in the presence of 10 nM ITK, 2 nM Eu-anti-GST antibody, and 50 nM kinase tracer-236 using a 384-well plate format. Background signal is defined in the absence of ITK and uninhibited signal is defined in the presence of vehicle (2% DMSO) alone. Compounds were evaluated in an 11 point dose-response ranging from 20 uM to 0.34 nM. The binding assays are performed under two preincubation conditions to evaluate time dependence of inhibition. For the pre-incubation assay, ITK and Eu-anti-GST antibody are pre-incubated with compound or vehicle for two hours prior to the addition of kinase tracer. The non-preincubated assay is run under conditions where ITK and Eu-anti-GST antibody are added to a mixture of compound and kinase tracer. IC50 values of compounds are determined using a 4 parameter logistical fit of emission ratio as a function of the concentration of compound.

[1] = system: ITK phosphorylation of its substrate, PLCγ1, at Y783; experiment: ITK target modulation assay (phospho-Y783 PLCγ1 immunoblot in Jurkat T cells); type: cell-based; conditions: 2 hours compound, CD3/CD28 Dynabeads stimulation 100 sec, anti-phospho-Y783 PLCγ1 immunoblot, read-out: PLC-γ Inhibition IC50
Method: Target modulation was based upon the ability of a compound to inhibit ITK phosphorylation of its substrate, PLCγ1, at […]. Human Jurkat T cells were placed in snap-cap polypropylene tubes at 4 million per tube in 800 μL medium (RPMI1640 with 10% heat inactivated serum and […] 2-mercaptoethanol and supplemented with glutamine/penicillin/streptomycin). Compounds were added as 100 μL of 10× working stock solutions in medium with 1% DMSO (or medium with 1% DMSO for controls) and placed in a 37° C. incubator for 2 hours. Stimulation was carried out using CD3/CD28 Dynabeads to activate the T cell receptor and mimic antigen presenting cells. Beads were added for 100 sec at a ratio of 1 bead per cell, in 100 μL medium (or medium alone for unstimulated control). Starting at 70 sec, cells and beads were pelleted in a microfuge for 15 sec, the supernatant aspirated, and 50 μL lysis buffer was added per tube and mixed with the pellet at the 100 sec time point. Tubes were placed on a rotator for 30 min at 4° C., and cell debris was pelleted in a microfuge. Supernatant was mixed 1:1 with 2× Sample Buffer and subjected to SDS-polyacrylamide gel electrophoresis. After transfer to nitrocellulose, immunoblotting was done with anti-phospho-[…] PLCγ1 antibody. Immunoblots were visualized with ECL using horseradish peroxidase conjugated secondary antibody.

`C=CC(=O)N(C)c1cc(OC)cc(-c2cnc3[nH]cc(-c4cccc(C#N)c4)c3c2)c1` [Example 65, N-(3-(3-(3-cyano-phenyl)-1H-pyrrolo[2,3-b]-pyridin-5-yl)-5-methoxyphenyl)-N-methylacryl-amide] showed an IC50 (ITK) of no more than 100 nM and an IC50 ([1]; Homo sapiens, Jurkat, 2 h) of no more than 1000 nM.

`COc1cc(NC(=O)/C=C/CN(C)C)cc(-c2cnc3[nH]cc(-c4ccncc4)c3c2)c1` [Example 53, (E)-4-(dimethyl-amino)-N-(3-methoxy-5-(3-(pyridin-4-yl)-1H-pyrrolo[2,3-b]pyridin-5-yl)phenyl)but-2-enamide] was tested, and the IC50 (ITK) was no more than 100 nM and the IC50 ([1]; Homo sapiens, Jurkat, 2 h) was no more than 1000 nM.

With `C=CC(=O)N(C)c1cccc(-c2cnc3[nH]cc(-c4ccnc(OC)c4)c3c2)c1` [Example 2, N-(3-(3-(2-Methoxypyridin-4-yl)-1H-pyrrolo[2,3-b]pyridin-5-yl)phenyl)-N-methylacrylamide] the IC50 (ITK) was no more than 100 nM and the IC50 ([1]; Homo sapiens, Jurkat, 2 h) was 1000 to 5000 nM.

`C=CC(=O)Nc1cc(-c2cnc3[nH]cc(-c4ccnc5[nH]ccc45)c3c2)cc(C(F)(F)F)c1` [Example 25, N-(3-(1H,1′H-[3,4′-bipyrrolo-[2,3-b]pyridin]-5-yl)-5-(trifluoro-methyl)phenyl)-acrylamide] gave an IC50 (ITK) of no more than 1000 nM and an IC50 ([1]; Homo sapiens, Jurkat, 2 h) of no more than 1000 nM.

Molecule `CN(C)C/C=C/C(=O)Nc1cncc(-c2cnc3[nH]cc(-c4ccnc(C#N)c4)c3c2)c1` [Example 36, (E)-N-(5-(3-(2-cyanopyridin-4-yl)-1H-pyrrolo-[2,3-b]pyridin-5-yl)pyridin-3-yl)-4-(dimethyl-amino)but-2-enamide] has an IC50 (ITK) of no more than 100 nM and an IC50 ([1]; Human Jurkat T cells) of no more than 1000 nM.

For `COc1cc(-c2c[nH]c3ncc(-c4cc(NC(=O)/C=C/CN(C)C)cc(C(F)(F)F)c4)cc23)ccn1` [Example 56, (E)-4-(dimethyl-amino)-N-(3-(3-(2-methoxy-pyridin-4-yl)-1H-pyrrolo[2,3-b]-pyridin-5-yl)-5-(trifluoromethyl)-phenyl)but-2-enamide], the IC50 (ITK) was no more than 100 nM and the IC50 ([1]; Homo sapiens, Jurkat, 2 h) was no more than 1000 nM.

With `CN(C)C/C=C/C(=O)Nc1cc(-c2cnc3[nH]cc(-c4ccnc(C#N)c4)c3c2)cc(C(F)(F)F)c1` [Example 40, (E)-N-(3-(3-(2-cyanopyridin-4-yl)-1H-pyrrolo-[2,3-b]pyridin-5-yl)-5-(trifluoro-methyl)phenyl)-4-(dimethyl-amino)but-2-enamide] the IC50 (ITK) was no more than 100 nM and the IC50 ([1]; Homo sapiens, Jurkat, 2 h) was no more than 1000 nM.

`C=CC(=O)Nc1cc(-c2cnc3[nH]cc(-c4cccc(Cl)c4)c3c2)cc(C(F)(F)F)c1` [Example 58, N-(3-(3-(3-chloro-phenyl)-1H-pyrrolo[2,3-b]-pyridin-5-yl)-5-(trifluoro-methyl)phenyl)-acrylamide] gave an IC50 (ITK) of no more than 1000 nM and an IC50 ([1]; Homo sapiens, Jurkat, 2 h) greater than 5000 nM.

`Cc1cc2c(-c3c[nH]c4ncc(-c5cc(NC(=O)/C=C/CN(C)C)cc(C(F)(F)F)c5)cc34)ccnc2[nH]1` [Example 14, (E)-4-(dimethyl-amino)-N-(3-(2′-methyl-1H,1′H-[3,4′-bipyrrolo-[2,3-b]pyridin]-5-yl)-5-(trifluoro-methyl)phenyl)-but-2-enamide] was tested, and the IC50 (ITK) was no more than 100 nM and the IC50 ([1]; Homo sapiens, Jurkat, 2 h) was no more than 1000 nM.

Work on `C=CC(=O)Nc1cc(F)cc(-c2cnc3[nH]cc(-c4cccc(C#N)c4)c3c2)c1` [Example 69, N-(3-(3-(3-cyano-phenyl)-1H-pyrrolo[2,3-b]-pyridin-5-yl)-5-fluorophenyl)-acrylamide] yielded an IC50 (ITK) of no more than 100 nM and an IC50 ([1]; Homo sapiens, Jurkat, 2 h) greater than 5000 nM.

Work on `C=CC(=O)Nc1cc(OC)cc(-c2cnc3[nH]cc(-c4ccnc(C)c4)c3c2)c1` [Example 28, N-(3-methoxy-5-(3-(2-methyl-pyridin-4-yl)-1H-pyrrolo[2,3-b]-pyridin-5-yl)-phenyl)acrylamide] yielded an IC50 (ITK) of no more than 100 nM and an IC50 ([1]; Homo sapiens, Jurkat, 2 h) of no more than 1000 nM.

With `C=CC(=O)Nc1cc(OC)cc(-c2cnc3[nH]cc(-c4ccnc(NC)n4)c3c2)c1` [Example 41, N-(3-methoxy-5-(3-(2-(methyl-amino)pyrimidin-4-yl)-1H-pyrrolo-[2,3-b]pyridin-5-yl)phenyl)acryl-amide] the IC50 (ITK) was no more than 100 nM and the IC50 ([1]; Homo sapiens, Jurkat, 2 h) was no more than 1000 nM.

Work on `COc1cc(NC(=O)/C=C/CN(C)C)cc(-c2cnc3[nH]cc(-c4ccnc(C)c4)c3c2)c1` [Example 37] yielded an IC50 (ITK) of no more than 100 nM and an IC50 ([1]; Homo sapiens, Jurkat, 2 h) of no more than 1000 nM.

For `C=CC(=O)Nc1cccc(-c2cnc3[nH]cc(-c4cncc(C(N)=O)c4)c3c2)c1` [Example 9, 5-(5-(3-acryl-amidophenyl)-1H-pyrrolo[2,3-b]-pyridin-3-yl)-nicotinamide], the IC50 (ITK) was no more than 100 nM and the IC50 ([1]; Homo sapiens, Jurkat, 2 h) was greater than 5000 nM.

With `C=CC(=O)Nc1cc(-c2cnc3[nH]cc(-c4ccnc(C#N)c4)c3c2)cc(C(F)(F)F)c1` [Example 35, N-(3-(3-(2-cyano-pyridin-4-yl)-1H-pyrrolo[2,3-b]-pyridin-5-yl)-5-(trifluoromethyl)-phenyl)acrylamide] the IC50 (ITK) was no more than 100 nM and the IC50 ([1]; Homo sapiens, Jurkat, 2 h) was no more than 1000 nM.

For `C=CC(=O)Nc1cccc(-c2cnc3[nH]cc(-c4ccnc(C#N)c4)c3c2C)c1` [Example 44, N-(3-(3-(2-cyano-pyridin-4-yl)-4-methyl-1H-pyrrolo[2,3-b]-pyridin-5-yl)-phenyl)acrylamide], the IC50 (ITK) was no more than 100 nM and the IC50 ([1]; Homo sapiens, Jurkat, 2 h) was no more than 1000 nM.

In the case of `CN(C)C/C=C/C(=O)Nc1cc(-c2cnc3[nH]cc(-c4ccnc(F)c4)c3c2)cc(C(F)(F)F)c1` [Example 32, (E)-4-(dimethyl-amino)-N-(3-(3-(2-fluoropyridin-4-yl)-1H-pyrrolo-[2,3-b]pyridin-5-yl)-5-(trifluoro-methyl)phenyl)-but-2-enamide], the IC50 (ITK) is reported as no more than 100 nM and the IC50 ([1]; Homo sapiens, Jurkat, 2 h) is reported as no more than 1000 nM.

With `C=CC(=O)Nc1cncc(-c2cnc3[nH]cc(-c4ccnc(C#N)c4)c3c2)c1` [Example 34, N-(5-(3-(2-cyano-pyridin-4-yl)-1H-pyrrolo[2,3-b]-pyridin-5-yl)-pyridin-3-yl)-acrylamide] the IC50 (ITK) was no more than 100 nM and the IC50 ([1]; Homo sapiens, Jurkat, 2 h) was no more than 1000 nM.

`COc1cc(NC(=O)/C=C/CN(C)C)cc(-c2cnc3[nH]cc(-c4ccncn4)c3c2)c1` [Example 52, (E)-4-(dimethyl-amino)-N-(3-methoxy-5-(3-(pyrimidin-4-yl)-1H-pyrrolo-[2,3-b]pyridin-5-yl)phenyl)but-2-enamide] showed an IC50 (ITK) of no more than 100 nM and an IC50 ([1]; Homo sapiens, Jurkat, 2 h) of 1000 to 5000 nM.

`C=CC(=O)Nc1cc(OC)cc(-c2cnc3[nH]cc(-c4ccnc(F)c4)c3c2)c1` [Example 29, N-(3-(3-(2-fluoro-pyridin-4-yl)-1H-pyrrolo[2,3-b]-pyridin-5-yl)-5-methoxyphenyl)-acrylamide] gave an IC50 (ITK) of no more than 100 nM and an IC50 ([1]; Homo sapiens, Jurkat, 2 h) of no more than 1000 nM.

Molecule `CNc1nccc(-c2c[nH]c3ncc(-c4cccc(NC(=O)/C=C/CN(C)C)c4)cc23)n1` [Example 27, (E)-4-(dimethyl-amino)-N-(3-(3-(2-(methylamino)-pyrimidin-4-yl)-1H-pyrrolo[2,3-b]pyridin-5-yl)phenyl)but-2-enamide] has an IC50 (ITK) of no more than 100 nM and an IC50 ([1]; Homo sapiens, Jurkat, 2 h) of 1000 to 5000 nM.

In the case of `C=CC(=O)Nc1cc(-c2cnc3[nH]cc(-c4ccnc(NC)n4)c3c2)cc(C(F)(F)F)c1` [Example 3, N-(3-(3-(2-(Methylamino)pyrimidin-4-yl)-1H-pyrrolo[2,3-b]pyridin-5-yl)-5-(trifluoromethyl)phenyl)acrylamide], the IC50 (ITK) is reported as no more than 100 nM and the IC50 ([1]; Homo sapiens, Jurkat, 2 h) is reported as no more than 1000 nM.
